From patent US20250179187A1, “ANTI PD-L2 ANTIBODY” (REJUVERON SENESCENCE THERAPEUTICS AG, priority 2022, published 2025)

Tested on: PyMT spontaneous tumors
Assay: Spontaneous mouse PyMT breast tumor model with tumor immunostaining
Assay type: in vivo
Settings: immunohistochemistry; antibody co-treated with doxorubicin vs Vehicle or Doxorubicin+mIgG1 (p<0.05)
Procedure: Hemizygous transgenic PyMT mice were allowed to develop tumors to an average size of around 200 cubic millimeters, usually around 9 weeks, at which time treatment was initiated, with N=3-5 per treatment group. Doxorubicin (Aurovitas) was administered intraperitoneally once per week at 4 mg/kg and antibodies were administered every three days at a dose of 10 mg/kg during four weeks or 3 mg/kg where noted. Vehicle-treated animals received only vehicle solvent for doxorubicin as a no-treatment control. Tumors were measured with a standard caliper once per week. At the end of the study, tumors were resected and further analyzed by immunohistochemistry. […]
For double SA-beta-galactosidase/PD-L2 staining, following resection, tumors were fixed in 2% paraformaldehyde and 0.2% glutaldehyde in PBS for 2 hours at room temperature. […] To quantify the number of cells double positive for SA-beta-galactosidase and PDL2, 3 random fields from 2 mammary glands from each animal in each treatment group was analyzed with Image J software. Staining for CD3, CD4 and CD8 was also carried out by standard immunohistochemistry techniques on paraffin-embedded material and quantified according to pixel density using Image J software.

SMILES: COc1cccc2c1C(=O)c1c(O)c3c(c(O)c1C2=O)C[C@@](O)(C(=O)CO)C[C@@H]3O[C@H]1C[C@H](N)[C@H](O)[C@H](C)O1 [doxorubicin, reference compound]
- cells double-positive for PD-L2 and SA-βGal in PyMT tumors: significantly induces double-positive cells
